Data as given in patent US20020007060A1, “Reverse hydroxamate inhibitors of matrix metalloproteinases” (priority 1998, published 2002).
Structures can show the parent of a compound that is named as a salt.

melting point [°C] | SMILES
202 to 204 | CC1(C)NC(=O)N(CCC(COc2ccc(-c3ccc(C#N)cc3)cc2)N(O)C=O)C1=O (stereo not shown) [Example 47, N-[1-[[(4′-cyano[1,1′-biphenyl]-4-yl)oxy]methyl]-3-(4,4-dimethyl-2,5-dioxo-1-imidazolidinyl)propyl]-N-hydroxyformamide]
159.5 to 160.5 | O=CN(O)C(CS(=O)(=O)c1ccc(-c2ccc(C(F)(F)F)cc2)cc1)c1ccc2c(c1)OCO2 (racemic) [Example 127, (±)-N-[1-(1,3-benzodioxol-5-yl)-2-[[4′-(trifluoromethyl)[1,1′-biphenyl]-4-yl]sulfonyl]ethyl]-N-hydroxyformamide]
96 to 98 | CCC(C)C(COc1ccc(-c2ccc(C#N)cc2)cc1)N(O)C=O (racemic) [Example 8, (±)-N-[1-[[(4′-cyano-[1,1′-biphenyl]-4-yl)oxy]methyl]-2-methylbutyl]-N-hydroxyformamide]
168.5 to 168.9 | O=CN(O)C(CS(=O)(=O)c1ccc(-c2ccc(C(F)(F)F)cc2)cc1)c1ccccn1 (racemic) [Example 123, (±)-N-hydroxy-N-[1-(2-pyridinyl)-2-[[4′-(trifluoromethyl) [1,1′-biphenyl]-4-yl]sulfonyl]ethyl]formamide]
116.4 to 117.6 | O=CN(O)C(CS(=O)(=O)c1ccc(-c2ccc(OC(F)(F)F)cc2)cc1)c1ccccn1 (racemic) [Example 186, (±)-N-hydroxy-N-[1-(2-pyridinyl)-2-[[4′-(trifluoromethoxy)[1,1′-biphenyl]-4-yl]sulfonyl]ethyl]formamide]
172 to 174 | CSc1ccc(-c2ccc(OCC(CN3C(=O)N(C)C(C)(C)C3=O)N(O)C=O)cc2)cc1 (stereo not shown) [Example 40, N-[1-[[[4′-(methylthio)[1,1′-biphenyl]-4-yl]oxy]methyl]-2-(3,4,4-trimethyl-2,5-dioxo-1-imidazolidinyl)ethyl]-N-hydroxyformamide]
173 to 175 | Cc1ccc(CC(COc2ccc(-c3ccc(C#N)cc3)cc2)N(O)C=O)cc1 (racemic) [Example 10, (±)-N-[1-[[(4′-cyano-[1,1′-biphenyl]-4-yl)oxy]methyl]-2-(4-methylphenyl)ethyl]-N-hydroxyformamide]
185.6 to 187.3 | CC1(C)CC(=O)N(CC(CS(=O)(=O)c2ccc(-c3ccc(C(F)(F)F)cc3)cc2)N(O)C=O)C(=O)C1 (racemic) [Example 124, (±)-N-[1-[(4,4-dimethyl-2,6-dioxo-1-piperidinyl)methyl]-2-[[4′-(trifluoromethyl)[1,1′-biphenyl]-4-yl]sulfonyl]ethyl]-N-hydroxyformamide]
141 to 144 | CC(COc1ccc(-c2ccc(C#N)cc2)cc1)N(O)C=O (racemic) [Example 13, (±)-N-[1-[[(4′-cyano-[1,1′-biphenyl]-4-yl)oxy]methyl]ethyl]-N-hydroxyformamide]
175.3 to 176.3 | COCC(CS(=O)(=O)c1ccc(-c2ccc(C(F)(F)F)cc2)cc1)N(O)C=O (racemic) [Example 126, (±)-N-hydroxy-N-[1-(methoxymethyl)-2-[[4′-(trifluoromethyl)[1,1′-biphenyl]-4-yl]sulfonyl]ethyl]formamide]
165 to 167 | CS(=O)(=O)c1ccc(-c2ccc(S(=O)(=O)CC(CO)N(O)C=O)cc2)cc1 (racemic) [Example 148, (±)-N-hydroxy-N-[1-(hydroxymethyl)-2-[[4′-(methylsulfonyl)[1,1′-biphenyl]-4-yl]sulfonyl]ethyl]formamide]
194 to 196 | N#Cc1ccc(-c2ccc(OCC(c3ccc(F)cc3)N(O)C=O)cc2)cc1 (racemic) [Example 11, (±)-N-[2-[(4′-cyano-[1,1′-biphenyl]-4-yl)oxy]-1-(4-fluorophenyl)ethyl]-N-hydroxyformamide]
137.1 to 138.5 | COCOc1ccc(C(CS(=O)(=O)c2ccc(-c3ccc(C(F)(F)F)cc3)cc2)N(O)C=O)cc1 (racemic) [Example 129, (±)-N-hydroxy-N-[1-[4-(methoxymethoxy)phenyl]-2-[[4′-(trifluoromethyl)[1,1′-biphenyl]-4-yl]sulfonyl]ethyl]formamide]
133 to 135 | N#Cc1ccc(-c2ccc(OCC(COc3ccccc3)N(O)C=O)cc2)cc1 (racemic) [Example 1, (±)-N-[1-[[(4′-cyano-[1,1′-biphenyl]-4-yl)oxy]methyl]-2-phenoxyethyl]-N-hydroxyformamide]
174.6 to 175.2 | CC(CS(=O)(=O)c1ccc(-c2ccc(C(F)(F)F)cc2)cc1)N(O)C=O (racemic) [Example 122, (±)-N-hydroxy-N-[1-methyl-2-[[4′-(trifluoromethyl)[1,1′-biphenyl]-4-yl]sulfonyl]ethyl]formamide]
115 to 117 | O=CN(O)C(CO)CS(=O)(=O)c1ccc(Oc2ccc(OC(F)(F)F)cc2)cc1 (racemic) [Example 138, (±)-N-hydroxy-N-[1-(hydroxymethyl)-2-[[4-[4-(trifluoromethoxy)phenoxy]phenyl]sulfonyl]ethyl]formamide]
195 to 197 | CC1(C)NC(=O)N(CC(CS(=O)(=O)c2ccc(-c3ccc(OC(F)(F)F)cc3)cc2)N(O)C=O)C1=O (stereo not shown) [Example 115, N-[1-[[[4′-(trifluoromethoxy)[1,1′-biphenyl]-4-yl]sulfonyl]methyl]-2-(4,4-dimethyl-2,5-dioxo-1-imidazolidinyl)ethyl]-N-hydroxyformamide]

melting point [°C] | SMILES
144 to 145 | CC(CS(=O)(=O)c1ccc(Oc2ccc(Cl)cc2)cc1)N(O)C=O (stereo not shown) [Example 74, N-[1-[[[4-(4-chlorophenoxy)phenyl]sulfonyl]methyl]ethyl]-N-hydroxyformamide]
172 | O=CN(O)C(COCc1ccccc1)CS(=O)(=O)c1ccc(-c2ccc(C(F)(F)F)cc2)cc1 (stereo not shown) [Example 77, N-[1-[(phenylmethoxy)methyl]-2-[[4′-(trifluoromethyl)[1,1′-biphenyl]-4-yl]sulfonyl]ethyl]-N-hydroxyformamide]
186.5 to 188.8 | O=CN(O)C(CCO)CS(=O)(=O)c1ccc(-c2ccc(C(F)(F)F)cc2)cc1 (racemic) [Example 125, (±)-N-hydroxy-N-[3-hydroxy-1-[[[4′-(trifluoromethyl)[1,1′-biphenyl]-4-yl]sulfonyl]methyl]propyl]formamide]
121 | CC1(C)CC(=O)N(CC(COc2ccc(-c3ccc(C#N)cc3)cc2)N(O)C=O)C(=O)C1 (stereo not shown) (as salt: potassium) [Example 50, N-[1-[[(4′-cyano[1,1′-biphenyl]-4-yl)oxy]methyl]-2-(4,4-dimethyl-2,6-dioxo-1-piperidinyl)ethyl]-N-hydroxyformamide]
153 to 154 | O=CN(O)C(CO)CS(=O)(=O)c1ccc(-c2ccc(Cl)cc2)cc1 (racemic) [Example 152, (±)-N-hydroxy-N-[1-(hydroxymethyl)-2-[(4′chloro[1,1′-biphenyl]-4-yl)sulfonyl]ethyl]formamide]
178 to 180 | CC(CS(=O)(=O)c1ccc(-c2ccc(Cl)cc2)cc1)N(O)C=O (stereo not shown) [Example 72, N-[1-[[(4′-chloro[1,1′-biphenyl]-4-yl)sulfonyl]methyl]ethyl]-N-hydroxyformamide]
130 to 132 | CN1C(=O)N(CC(COc2ccc(-c3cccc(C#N)c3)cc2)N(O)C=O)C(=O)C1(C)C (stereo not shown) [Example 39, N-[1-[[(3′-cyano[1,1′-biphenyl]-4-yl)oxy]methyl]-2-(3,4,4-trimethyl-2,5-dioxo-1-imidazolidinyl)ethyl]-N-hydroxyformamide]
186.5 to 188.8 | O=CN(O)C(CS(=O)(=O)c1ccc(-c2ccc(C(F)(F)F)cc2)cc1)c1cccnc1 (racemic) [Example 120, (±)-N-hydroxy-N-[1-(3-pyridinyl)-2-[[4′-(trifluoromethyl)[1,1′-biphenyl]-4-yl]sulfonyl]ethyl]formamide]
167 to 168 | O=CN(O)C(CO)CS(=O)(=O)c1ccc(-c2ccc(OC(F)(F)F)cc2)cc1 (racemic) [Example 151, (±)-N-hydroxy-N-[1-(hydroxymethyl)-2-[[4′-(trifluoromethoxy)[1,1′-biphenyl]-4-yl]sulfonyl]ethyl]formamide]
161 to 162 | CSc1ccc(-c2ccc(S(=O)(=O)CC(CO)N(O)C=O)cc2)cc1 (racemic) [Example 150, (±)-N-hydroxy-N-[1-(hydroxymethyl)-2-[[4′-(methylthio)[1,1′-biphenyl]-4-yl]sulfonyl]ethyl]formamide]
138.9 to 140.3 | O=CN(O)C(CCCO)CS(=O)(=O)c1ccc(-c2ccc(C(F)(F)F)cc2)cc1 (racemic) [Example 128, (±)-N-hydroxy-N-[4-hydroxy-1-[[[4′-(trifluoromethyl)[1,1′-biphenyl]-4-yl]sulfonyl]methyl]butyl]formamide]
199 to 202 | N#Cc1ccc(-c2ccc(OCC(CN3C(=O)c4ccccc4C3=O)N(O)C=O)cc2)cc1 (racemic) [Example 3, (±)-N-[1-[[(4′-cyano-[1,1′-biphenyl]-4-yl)oxy]methyl]-2-(2,3-dihydro-1,3-dioxo-1H-isoindol-2-yl)ethyl]-N-hydroxyformamide]
200 to 201 | CC(CS(=O)(=O)c1ccc(-c2ccc3c(c2)OCO3)cc1)N(O)C=O (stereo not shown) [Example 73, N-[1-[[[4-(1,3-benzodioxol-5-yl)phenyl]sulfonyl]methyl]ethyl]-N-hydroxyformamide]
199 to 200 | CCC(CS(=O)(=O)c1ccc(-c2ccc(OC)cc2)cc1)N(O)C=O (stereo not shown) [Example 75, N-[1-[[(4′-methoxyl[1,1′-biphenyl]-4-yl)sulfonyl]methyl]propyl]-N-hydroxyformamide]
128 | N#Cc1cccc(-c2ccc(OCC(CN3C(=O)CCC3=O)N(O)C=O)cc2)c1 (stereo not shown) [Example 49, N-[1-[[(3′-cyano[1,1′-biphenyl]-4-yl)oxy]methyl]-2-(2,5-dioxo-1-pyrrolidinyl)ethyl]-N-hydroxyformamide]
105 to 108 | CCCCC(COc1ccc(-c2ccc(C#N)cc2)cc1)N(O)C=O (racemic) [Example 9, (±)-N-[1-[[(4′-cyano-[1,1′-biphenyl]-4-yl)oxy]methyl]pentyl]-N-hydroxyformamide]
142 to 145 | N#Cc1ccc(-c2ccc(OCCN(O)C=O)cc2)cc1 [Example 15, N-[2-[(4′-cyano-[1,1′-biphenyl]-4-yl)oxy]ethyl]-N-hydroxyformamide]
